Key:
[1] = system: Penaeid shrimp (Litopenaeus vannamei); assay: Field trial on a commercial shrimp farm using several pigment sources to evaluate production; format: in vivo
Excerpt: Penaeid shrimp (Litopenaeus vannamei) with an average initial weight of 0.96 gr were stocked at a density of 25.04 individuals/square meter in […]. There were three ponds for each treatment to give a total of 12 ponds. The size of the ponds differed slightly as shown in Table 3 where a summary of the yields obtained after harvesting are also presented. All ponds were fed with the same diets varying only in the type of pigment used and keeping one as a control without pigment addition. Weight of feed supplied to each pond was recorded daily and the feed conversion ratio calculated after harvesting. Culture of the shrimp was done following normal commercial procedures and doing exactly the same operations in all ponds.

Rainbow trout = assay: Field trial on rainbow trout in a commercial fish farm (pigmentation and growth); format: in vivo; details: 90 ppm in feed
Protocol: A field trial with Rainbow Trout was done to assess pigmentation and growth in a commercial fish farm. The fish were grown in concrete raceways where fish were stocked in two sections of different raceways. In one section we had the control treatment which was fed with feed containing synthetic astaxanthin at 90 ppm. […] The water temperature was constant at 16° C. throughout the test as was the flow rate at 60 1/sec. Fish were fed to satiate, feed consumed was weighed for each treatment and conversion rates calculated based on the initial and final biomass.

SMILES: CC1=C(/C=C/C(C)=C/C=C/C(C)=C/C=C/C=C(C)/C=C/C=C(C)/C=C/C2=C(C)C(=O)[C@@H](O)CC2(C)C)C(C)(C)C[C@H](O)C1=O [Synthetic astaxanthin, astaxanthin]
- Harvest Kg/Hect ([1]; 25 ppm pigment in feed): 1,283 Kg/Hect
- % Survival ([1]; 25 ppm pigment in feed, at harvest after 92-100 days): 66.5%
- Feed Conv Ratio ([1]; 25 ppm pigment in feed, calculated after harvesting): 1.62
- Harvest Kg ([1]; 25 ppm pigment in feed, three ponds): 18,729 Kg
- survival rate (in words) ([1]; after harvesting): low survival rate
- Average Wt gain (Rainbow trout): 0.188 kg
- Average end Wt (Rainbow trout): 0.337 kg
- Conv. Ratio (Rainbow trout; based on initial and final biomass): 1.56
- average weight gain (Rainbow trout; end of feeding trial): 188 grams
- Feed consumed (Rainbow trout; fed to satiate): 125.2 kg
- Final Biomass (Rainbow trout; fed to satiate, 16° C.): 154.6 kg

From patent publication US7383788B2, “Enhanced feeding and growth rates of aquatic animals fed an astaxanthin product derived from marigold extract” (DSM IP Assets B.V., priority 2002, dated 2008)
